Read-outs that look alike come from different tables or passages of the source. Marks after values point to notes of the source that are not given here.
Experiments:
[1] = tested on: Caucasian schizophrenia patients; assay: CATIE: hospitalization due to exacerbation of psychosis by SULT4A1-1 status; assay type: in vivo, human
From the text: To assess if SULT4A1-1 status impacts the risk of hospitalization in Caucasians, the inventors assigned SULT4A1-1 status to each CATIE subject and evaluated hospitalization events due to exacerbation of psychosis. For this analysis, the inventors assigned a dichotomous value (positive or negative) for hospitalization status to subjects in each phase of the trial based on only the first hospitalization event for a given patient in that phase. Patients participating in Phases 1, 2, and/or 3 were included in the totals for the appropriate drug.
A Kaplan-Meier survival analysis was performed to determine whether there was a difference between the survival (hospitalization) rates for the SULT4A1-1 negative and SULT4A1-1 positive patient populations treated with each of the atypical antipsychotics. Survival plots model the fraction of the population that survived (i.e., no hospitalization event) as a function of time.

[2] = tested on: schizophrenia patients; assay: CATIE: months of successful treatment measured by the CGI scale (TMSUCC1); assay type: in vivo, human
From the text: The CATIE clinical data set included Clinical Global Impression (CGI) Scale, an observer-provided assessment of the psychiatric health of the patient (Stroup et al., 2003; Guy 1976). Patients are rated with the CGI Scale from 1 to 7, with higher scores indicating greater severity of illness. The CATIE study provided a response variable that measured the time (in months) of successful treatment as measured by the CGI scale (“TMSUCC1” in the CATIE data).

[3] = tested on: African American schizophrenia patients; assay: CATIE: change in total PANSS (LOCF) by SULT4A1-1 haplotype status, African Americans; assay type: in vivo, human; conditions: for Number of individuals with change in total PANSS ≦−20% (responders) / Number of individuals with change in total PANSS ≧−20% (non-responders): LOCF
Method: The design of the CATIE study has been described in detail by others (Lieberman et al., 2005; Stroup et al., 2003). […] A total of 738 subjects consented to provide DNA for genetic study. […] Retrospective genetic analyses, judged to be exempt from human studies requirements by an IRB, were conducted in the current study. All tested patients were studied using well established clinical endpoints comparing baseline, intermediate, and last observation carried forward (LOCF) for the PANSS scores using CATIE data. […] To remove time on drug as a variable for the CATIE trial, analysis was limited to only those patients who were randomized to a different drug following the initial washout period (drug switchers).

[4] = tested on: Caucasian schizophrenia patients; assay: CATIE: time to discontinuation for all causes by SULT4A1-1 status; assay type: in vivo, human
From the text: The primary endpoint for the CATIE study was time to discontinuation for all causes (Lieberman et al., 2005). Thus the inventors evaluated the effect of SULT41-1 status on this important parameter.

[5] = tested on: schizophrenia patients
From the text: For the analyses shown in Tables 22-24, SULT4A1-1 haplotype status was assigned as describe in Example 3, and standard statistical survival analysis using Cox's proportional hazards model was used to determine the relative risk (hazard) of discontinuing drug use. The Hazard Ratio (HR) measures the risk of an event (in this case, switching or discontinuation from the drug) relative to patient exposure or status (in this case, SULT4A1-1 positive status).
As describe in Example 11, Hazard Ratio (HR) measures the risk of an event (in this case, switching or discontinuation from the drug) relative to patient exposure or status (in this case, SULT4A1-1 status).

[6] = tested on: schizophrenia patients; conditions: Phase II; for Responders: decrease PANSS ≧20%, LOCF
[7] = tested on: unsegmented patient populations; conditions: cited from earlier work
[8] = SULT4A1-1 negative risperidone / SULT4A1-1 negative all other drugs
[9] = Unsegmented risperidone / Unsegmented all other drugs

Cc1nc2n(c(=O)c1CCN1CCC(c3noc4cc(F)ccc34)CC1)CCCC2 [Risperidone]
HOSP, number of patients hospitalized ([1]; SULT4A1-1 negative): 16 | HOSP, rate of hospitalization ([1]; SULT4A1-1 negative): 13% | HOSP, number of patients hospitalized ([1]; SULT4A1-1 positive): 4 | HOSP, rate of hospitalization ([1]; SULT4A1-1 positive): 11.1% | HOSP, rate of hospitalization ([1]; Unsegmented): 12.6% | HOSP, number of patients hospitalized ([1]; Unsegmented, Phases 1, 2 and/or 3, first event): 20 | Kaplan-Meier: difference between survival (no hospitalization) rates of SULT4A1-1 negative and positive patients ([1]; per drug): not statistically significant | Length of successful treatment (CGI Months), Mean ([2]; SULT4A1-1 negative): 6.88 Months | Length of successful treatment (CGI Months), Mean ([2]; SULT4A1-1 positive): 1.76 Months | Length of successful treatment (CGI Months), Mean ([2]; Unsegmented): 5.79 Months | Number of individuals with change in total PANSS ≦−20% (responders) ([3]; SULT4A1-1 negative): 7 | Number of individuals with change in total PANSS ≧−20% (non-responders) ([3]; SULT4A1-1 negative): 34 | Responders ([3]; SULT4A1-1 positive): 60% | Number of individuals with change in total PANSS ≦−20% (responders) ([3]; SULT4A1-1 positive): 3 | Number of individuals with change in total PANSS ≧−20% (non-responders) ([3]; SULT4A1-1 positive): 2 | Time to discontinuation, mean ([4]; SULT4A1-1 negative): 11.3 Months | Time to discontinuation, mean ([4]; SULT4A1-1 positive): 8.0*** Months | HR, all-cause discontinuation [5, 8]: 0.79^a | HR, discontinuation due to lack of efficacy [5, 8]: 0.88^a | HR, all-cause discontinuation ([5]; SULT4A1-1 positive risperidone / SULT4A1-1 positive all other drugs): 1.48^a | HR, all-cause discontinuation [5, 9]: 0.91^a | HR, discontinuation due to lack of efficacy [5, 9]: 1.09^a | % Responders ([6]; SULT4A1-1 Negative): 33.3% | Nonresponders ([6]; SULT4A1-1 Negative): 8 | Responders ([6]; SULT4A1-1 Negative): 4 | % Responders ([6]; SULT4A1-1 Positive): 0% | Nonresponders ([6]; SULT4A1-1 Positive): 1 | Responders ([6]; SULT4A1-1 Positive): 0 | Effect Size vs. FGA ([7]; first generation antipsychotics, Davis et al. (2003)): −0.25 | Effect Size vs. Placebo ([7]; meta-analysis, Leucht et al. (2009), negative = greater reduction in PANSS): −0.59 | Mean difference in total PANSS score between olanzapine and labelled drug, Meta-analysis ([7]; unsegmented populations, Leucht et al. (2009)): −1.9
